Test results taken from ChEMBL document CHEMBL1201862, “PubChem BioAssay data set” (2004).
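Growth conditions: 96-well plates. Treatment: test compound, 48 hours, 5 concentrations. Analysis: linear interpolation between bracketing concentrations; unreached endpoints set to highest concentration. GI50 is the concentration that inhibits growth by half.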 Calls of active or inactive are those of the source. No stated cut-off is given here; in the data, active = GI50 up to about 1.1 µM and inactive = higher.

How the values were obtained:
Experiment in all cases: DTP human tumour cell line panel, 48 h
[1] = tested on: K562
[2] = tested on: SW-620
[3] = tested on: OVCAR-4
[4] = tested on: HOP-62
[5] = tested on: SR
[6] = tested on: A498
[7] = tested on: OVCAR-5
[8] = tested on: HT-29
[9] = tested on: RPMI-8226
[10] = tested on: ACHN
[11] = tested on: Malme-3M
[12] = tested on: NCI-H226
[13] = tested on: SK-MEL-28
[14] = tested on: MDA-MB-435
[15] = tested on: SK-MEL-5
[16] = tested on: RXF 393
[17] = tested on: HCC 2998
[18] = tested on: UACC-62
[19] = tested on: MDA-MB-231

Measured: GI50

CN1c2ccccc2C(=O)NC12CCN(CC1COc3ccccc3O1)CC2 (stereo not given)
inactive: [1] 31.3 µM | [2] 77.8 µM | [3] 29.9 µM | [4] 49.8 µM | [5] 23.8 µM | [6] 20.3 µM | [7] 48.6 µM | [8] 31.9 µM | [9] 30.5 µM | [10] 19.6 µM | [11] 33 µM | [12] 19.2 µM | [13] 55.3 µM | [14] 33.4 µM | [15] 16.2 µM | [16] > 100 µM | [17] > 100 µM | [18] 29.7 µM

S=c1sc2c(Cl)nc(Cl)nc2n1-c1ccccc1
inactive: [1] 29 µM | [2] 27.2 µM | [3] 41.3 µM | [4] 59.6 µM | [5] 22.3 µM | [6] > 100 µM | [7] > 100 µM | [8] 33 µM | [9] > 100 µM | [10] > 100 µM | [11] 8.11 µM | [12] 61.2 µM | [13] 15.6 µM | [15] 64.4 µM | [16] 21.6 µM | [17] 52.4 µM | [18] 14.6 µM

CCCCC(C(=O)CCC(=O)Nc1ccc(Cl)c(Cl)c1)C(=O)C(C)C (stereo not given)
inactive: [1] 40.9 µM | [2] > 100 µM | [3] > 100 µM | [4] > 100 µM | [5] > 100 µM | [6] > 100 µM | [7] 32.3 µM | [8] > 100 µM | [9] > 100 µM | [10] 31.2 µM | [11] > 100 µM | [12] > 100 µM | [13] > 100 µM | [15] > 100 µM | [16] > 100 µM | [17] > 100 µM | [18] 19.6 µM

O=C(O)CNC(=O)c1c2ccccc2nc2ccccc12
inactive: [1] > 100 µM | [19] > 100 µM | [2] > 100 µM | [3] > 100 µM | [4] > 100 µM | [5] > 100 µM | [6] > 100 µM | [7] > 100 µM | [8] > 100 µM | [9] > 100 µM | [10] > 100 µM | [11] > 100 µM | [12] > 100 µM | [13] > 100 µM | [14] > 100 µM | [15] > 100 µM | [17] > 100 µM | [18] > 100 µM
